{"source": "patent US20140349923A1", "about": "“Compositions And Methods For Treating Diabetes And/Or Obesity” (GlaxoSmithKline Intellectual Property (No. 2) Limited, priority 2012, published 2014)", "test": "Chronic obesity efficacy study in DIO mice, chow ingredients with or without exendin-4 AlbudAb", "type": "in vivo, DIO C57BL/6 mice", "description": "Male diet induced obese (DIO) C57BL/6 mice (40-50 g body weight) and lean C57BL/6 mice (Taconic, Hudson, N.Y.) were used for the chronic obesity efficacy studies. The DIO mice were group housed and fed a high fat diet (60% fat by kcal) by the vendor from the time of weaning. Upon receipt at the GlaxoSmithKline Research Triangle Park facility, all mice were single-housed and maintained at constant temperature (approximately 22° C.) with 12 hr light/dark cycle (lights on from 5:00 AM to 5:00 PM). The mice were given ad libitum access to food (Research Diets D12451, 45 kcal % fat for DIO; Lab Diet 5001, 13.5 kcal % fat for lean) and water. All animal protocols were approved by the institutional animal care and use committee at GlaxoSmithKline in Research Triangle Park, N.C. The BCE, OFS, pectin, oleic acid, Nutella containing chows were prepared by mixing in a Hobart mixer with a whisk attachment and stored at 4° C. until used. Chows were fed to mice in glass jars with wire mesh column inserts (Unifab Corp., Kalamazoo, Mich.). […] All combination then were evaluated with and without co-treatment with exendin-4-albudAb. […] Body weights (BW) were measured on day −7 and then every 3 to 4 days for the duration of the study. On day 24, body composition was measured using quantitative magnetic resonance (QMR). […]"}
{"smiles": "CCCCCCCC/C=C\\CCCCCCCC(=O)O", "note": "[oleic acid]", "values": [{"measurement": "weight loss (% change in body weight)", "setting": "26 days", "value": "−4.3", "unit": "%"}, {"measurement": "effect on weight compared to vehicle", "setting": "Student's t-test", "value": "statistically significant weight loss"}]}
